Experimental data taken from patent US12559471B2, “1,5-dihydro-2,4-benzodiazepine-3-one derivative and application thereof” (JIANGSU NHWA PHARMACEUTICAL CO., LTD, priority 2020, dated 2026).
Values joined by “and” are separate entries in the source; they are usually repeats but may differ in a detail not shown here. Identical values can stand only once.

Tests used:
5-HT2C receptor = 5-HT2C receptor (Rattus norvegicus (Rat), UniProt P08909); conditions: read-out: 5-HT2C (Ki value); rat cortex membrane, 3H-Mesulergine
Method: 2) Preparation of 5-HT2C Membrane
The rat cortex was taken out of a refrigerator at −80° C. and thawed spontaneously. The solution A was added, and the mixture was homogenized for 3-4 s at 4th gear for a total of 4 times and centrifuged at 50000 g for 25 min at 4° C. The supernatant was discarded, and the solution A was added into the precipitate. The mixture was mixed well using a vortex mixer and centrifuged at 50000 g for 25 min at 4° C. (repeated twice). The supernatant was discarded after the centrifugation, and the precipitate was stored at −80° C. for later use.
2) Competitive 5-HT2C Receptor Binding Assay
Step 1: the prepared membrane was suspended in the homogenate B to obtain a 210 mg/mL membrane suspension for later use.
Step 2: 100 μL of the membrane suspension was added into each reaction tube.
Step 3: 100 μL of the solution B was added into a total binding tube (TB), 100 μL of Ketanserin (final concentration: 1.0×10^−5 M) was added into a non-specific binding tube (NB), and 100 μL of test compound was added into each compound binding tube (CB).
Step 4: 10 μL of radioligand ^3H-Mesulergine was added into each reaction tube to reach a final concentration of 3 nM.
Step 5: each reaction tube was incubated at 37° C. for 25 min. After the reaction was completed, the binding ligands were rapidly filtered under reduced pressure, wherein the Whatman test paper GF/C was washed with 0.5% PEI solution 1 h in advance. The filter membrane was fully washed with cold Tris buffer solution, taken out and put into a 4 mL scintillation disc, which was then added with 1 mL toluene scintillation solution and shaken for mixing well.
Step 6: the scintillation disc was put into a liquid scintillation counter for counting.

[1] = test system: MPTP+MK-801-induced Parkinson's disease mouse model; assay: MPTP+MK-801-induced Parkinson's disease mouse model (anti-PDP efficacy model); format: in vivo; conditions: ip, mice, intraperitoneal, read-out: PDP efficacy (high activity) ED50
Method: 1.1 Effect on MPTP+MK-801-induced Parkinson's disease mouse model (anti-PDP efficacy model)
Animals were injected with different doses of MPTP(1-methyl-4-phenyl-1,2,3,6-tetrahydropyridine) intraperitoneally every morning for 5 consecutive days. […] Then, after an interval of 0.25 h, the mice were placed into an autonomous activity test box (a black polyethylene box with the specification of 29 cm×29 cm×30 cm) for video recording for 20 min. Video analysis was performed after the video recording to evaluate the activity of the mice.

[2] = Investigation of sedation side effects (autonomic activity, movement distance); format: in vivo, mice; conditions: mouse, in vivo, ip; C57BL/6j mice, intraperitoneal, 45 min after administration
Method: 1.3 Investigation of Sedation Side Effects (Anti-Sedation Model)
According to different doses of each group, solutions at different concentrations were separately formulated for intraperitoneal injection, with the final administration volume of 10 mL/kg.
The movement at 0-20 min was recorded on video, and the movement distance in 20 min was analyzed by Top Scan 3.00 software. The inhibition rate of each group relative to the blank group after the administration were calculated, and the sedation effects of the compounds were comprehensively evaluated in combination with a statistical conclusion.

[3] = test system: DOI-induced head shaking behavior of mice; assay: DOI-induced head shaking (head thrust) test in mice; format: in vivo; conditions: Mus musculus, intragastric, DOI 1 mg/kg i.p., 0-20 min, read-out: ED50 for inhibiting the DOI-induced head shaking behavior
Method: 1. Head Thrust Test in Mice
Mice were stratified according to body weight and then randomly divided into a model control group, a blank control group and drug administration groups. 1 h after the intragastric administration of a vehicle or a drug, the animals were placed in a beaker (with the diameter of 13 cm and the height of 19 cm) paved with fresh padding, and were injected with a modeling drug DOI ((±)-1-(2,5-dimethoxy-4-iodophenyl)-2-aminopropane hydrochloride or (±)-2,5-dimethoxy-4-iodoamphetamine hydrochloride) intraperitoneally at a dose of 1 mg/kg. The head shaking times of the mice during the 0-20 min after the intraperitoneal injection of DOI were recorded. The head shaking behavior is defined as a rapid rotational twitching or wet dog-like shaking of the mouse head, which is distinguished from normal grooming or exploring behavior.

[4] = test system: MK-801-induced high activity behavior of mice; assay: Dizocilpine (MK-801)-induced high activity test in mice; format: in vivo; conditions: Mus musculus, 1 h, intragastric, MK-801 0.3 mg/kg i.p., 60 min, read-out: ED50 for inhibiting the MK-801-induced high activity behavior
Method: 2. Dizocilpine (MK-801)-Induced High Activity Test in Mice 2.1 Test Method
Mice were stratified according to body weight and then randomly divided into a model control group, a blank control group and drug administration groups. After the administration of a test substance (or a control substance), the mice were placed into an autonomous activity test box (a black polyethylene box with the specification of 29 cm×29 cm×30 cm) for adaptation, and injected with MK-801 at 0.3 mg/kg intraperitoneally 1 h after the intragastric administration. The mice were then placed into the autonomous activity test box for video recording for 60 min. Video analysis was performed after the video recording to evaluate the activity of the mice.

[5] = test system: DOI-induced PPI impairment in rats; assay: DOI-induced PPI impairment test in rats (intervention test); format: in vivo; conditions: DOI 0.5 mg/kg; for reversal of DOI-induced PPI impairment: P<0.05
Method: 3. DOI ((f)-1-(2,5-dimethoxy-4-iodophenyl)-2-aminopropane hydrochloride or (f)-2,5-dimethoxy-4-iodoamphetamine hydrochloride) induced PPI impairment effect test in rats
30 min after the intragastric administration of a drug (or a vehicle) and 30 min after the subcutaneous injection of DOI at 0.5 mg/kg at the neck, namely 60 min after the intragastric administration, the rats were placed into a startle reflex test box for testing.
(§1) The test was performed according to literature and preliminary experiments, and the specific process was as follows: first an adaptation period of 5 min was given (62 dB background sound), and 5 separate startle reflex stimuli were given after the adaptation period (blockl, results not included in the analysis to reduce the initial response of the animals to a plateau level), followed by 4 different types of tests (block2) presented in a pseudo-random manner, namely: 1) startle reflex stimulus alone (pulse-alone, 120 dB, lasting 20 ms); 2) prepulse stimulus alone 13 dB above the background sound (prepulse-alone, 75 dB, lasting 20 ms); 3) prepulse stimulus in combination with startle reflex stimulus, each lasting 20 ms, with an interval of 100 ms; and 4) no stimulus in which only the background sound was given (no stimulus). Each trial was performed 5 times, with an average interval of 20 s (10-30 s) between trials.
(§2) The response amplitude of the startle reflex stimulus alone or the prepulse stimulus in combination with startle reflex stimulus was expressed as the AVG (instrument-specific unit) value, which indirectly reflects the size of the flinching response of the rat body. Evaluation index: PPI %=(1−response amplitude of prepulse stimulus in combination with startle reflex stimulus/response amplitude of startle reflex stimulus alone)×100. The higher the value is, the greater the degree of the inhibition is.

PPI in normal rats = PPI in normal rats (dosing test, normal saline instead of DOI); format: in vivo; conditions: for PPI %, MEAN / PPI %, individual animal: normal saline
Method: as §1
as §2, with “is. Dosing Test:” for “is.”
The DOI at 0.5 mg/kg administered to animals in the above groups was changed to normal saline (NS), and other operations including administration and testing were the same as those in the intervention test.

5-HT2A receptor = 5-HT2A receptor (Homo sapiens (Human), UniProt P28223); assay: Competitive 5-HT2A receptor binding assay (3H-Ketanserin, CHO-5-HT2A membrane)
Method: 1) Preparation of CHO-5-HT2A Receptor Membrane
The precipitate was collected, and the supernatant was discarded. The solution B was added into the precipitate. […] The supernatant was carefully discarded, and the solution B was added into the precipitate again. […] The precipitate obtained was stored at −80° C.
1) Competitive 5-HT2A Receptor Binding Assay
Step 2: 100 μL of the membrane preparation was added into each reaction tube.
After the filtration, the filter membrane was dried at 60° C. and added into a scintillation disc attached with a bottom membrane, which was then added with 40 μL of scintillation liquid, sealed with a top membrane, and left to stand.

hERG potassium channel = hERG potassium channel (Homo sapiens (Human), UniProt Q12809); assay: In vitro hERG assay, whole-cell patch clamp in HEK-293 cells; format: cell-based; conditions: HEK-293 cells stably expressing hERG, room temperature
Method: b. […] The working solutions of the test compounds were ultrasonically treated for 20 min.
The cell suspension was gently pipetted to separate the aggregated cells.
Under an inverted microscope, recording electrodes were controlled by a glass electrode micromanipulator (micromanipulation) to contact with the cell. […] After forming the GΩ seal, a rapid capacitance compensation was given.
Negative control and test compounds flowed through the recording chamber in an ascending order of concentration by gravity perfusion to quickly act on the cells. During the recording, the extracellular fluid was continuously circulated by a vacuum pump. […] Each concentration was allowed to act for 5 min or until the current was stabilized. All experiments were performed at room temperature.
[formula] Basic statistics were calculated for each concentration, including mean, standard deviation (SD), standard error (SE), and replicates (n). The dose-dependent curve was fitted with the following equation and the half maximal inhibitory concentration (IC50) of the test compounds was calculated:
Curve fitting and calculation of IC50 were performed by GraphPad Prism 5.0 software. 5. Experimental Results

5-HT2B receptor = 5-HT2B receptor (Homo sapiens (Human), UniProt P41595); conditions: background statement, no significant affinity; cited from earlier work
adrenergic receptor = conditions: background statement, no significant affinity; cited from earlier work
[6] = test system: MPTP+APO-induced climbing behavior in male mice; assay: MPTP+APO-induced climbing behavior in male mice (DA motor deterioration model); format: in vivo; conditions: male mice, intraperitoneal
Method: (§3) 1.2 Effect on MPTP+APO-induced climbing behavior in male mice (DA motor deterioration model) Animals were injected with different doses of MPTP intraperitoneally every morning for 5 consecutive days. […] After the subcutaneous injection, animals were immediately placed into a climbing cage (self-made, a cylindrical cage with the diameter of 13 cm and the height of 15 cm, made of a stainless steel wire mesh with the diameter of about 0.1 cm, the bottom of which is a semitransparent polyethylene plate, and the cage cover of which is a stainless steel cage cover), and the behaviors of animals at minutes 10-11, 20-21 and 30-31 after the APO injection was observed and scored.
(§4) Scoring criteria: four feet on the floor scored 0; two forepaws on the cage scored 1; and four feet on the cage scored 2.

[7] = as above; format: in vivo; conditions: mouse, in vivo, ip; male mice, intraperitoneal; read-out: DA side effects (climbing motor deterioration) ED50
Method: as §3, §4

muscarinic receptor = conditions: background statement, no significant affinity; cited from earlier work
calcium channel receptor = conditions: background statement, no significant affinity; cited from earlier work

Sequence of 5-HT2A receptor (P28223 whole entry): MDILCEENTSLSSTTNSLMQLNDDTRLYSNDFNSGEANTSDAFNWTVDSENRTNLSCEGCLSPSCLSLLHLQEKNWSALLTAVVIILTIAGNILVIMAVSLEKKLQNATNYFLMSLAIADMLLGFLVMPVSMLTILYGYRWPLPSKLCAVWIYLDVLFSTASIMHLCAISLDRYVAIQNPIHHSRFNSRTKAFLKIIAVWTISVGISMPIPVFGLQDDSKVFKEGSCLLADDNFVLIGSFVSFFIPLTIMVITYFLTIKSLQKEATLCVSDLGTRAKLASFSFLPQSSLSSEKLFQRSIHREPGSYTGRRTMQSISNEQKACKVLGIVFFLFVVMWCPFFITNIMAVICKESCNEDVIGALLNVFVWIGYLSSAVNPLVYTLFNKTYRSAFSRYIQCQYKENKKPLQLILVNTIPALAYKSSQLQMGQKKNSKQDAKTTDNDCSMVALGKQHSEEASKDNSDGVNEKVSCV
Sequence of 5-HT2B receptor (P41595 whole entry): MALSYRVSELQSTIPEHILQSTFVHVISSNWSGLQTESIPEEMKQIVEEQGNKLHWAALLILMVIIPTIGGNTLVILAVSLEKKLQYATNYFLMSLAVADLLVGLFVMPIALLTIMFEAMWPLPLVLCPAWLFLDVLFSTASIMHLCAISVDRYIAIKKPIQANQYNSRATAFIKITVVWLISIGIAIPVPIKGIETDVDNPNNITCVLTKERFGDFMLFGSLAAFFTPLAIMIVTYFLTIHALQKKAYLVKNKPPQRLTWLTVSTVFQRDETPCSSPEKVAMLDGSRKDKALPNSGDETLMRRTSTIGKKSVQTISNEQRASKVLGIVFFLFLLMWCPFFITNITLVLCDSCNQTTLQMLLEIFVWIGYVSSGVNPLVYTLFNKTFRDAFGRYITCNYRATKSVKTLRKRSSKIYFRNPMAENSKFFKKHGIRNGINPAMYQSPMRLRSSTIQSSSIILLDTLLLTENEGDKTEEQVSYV
Sequence of hERG potassium channel (Q12809 whole entry): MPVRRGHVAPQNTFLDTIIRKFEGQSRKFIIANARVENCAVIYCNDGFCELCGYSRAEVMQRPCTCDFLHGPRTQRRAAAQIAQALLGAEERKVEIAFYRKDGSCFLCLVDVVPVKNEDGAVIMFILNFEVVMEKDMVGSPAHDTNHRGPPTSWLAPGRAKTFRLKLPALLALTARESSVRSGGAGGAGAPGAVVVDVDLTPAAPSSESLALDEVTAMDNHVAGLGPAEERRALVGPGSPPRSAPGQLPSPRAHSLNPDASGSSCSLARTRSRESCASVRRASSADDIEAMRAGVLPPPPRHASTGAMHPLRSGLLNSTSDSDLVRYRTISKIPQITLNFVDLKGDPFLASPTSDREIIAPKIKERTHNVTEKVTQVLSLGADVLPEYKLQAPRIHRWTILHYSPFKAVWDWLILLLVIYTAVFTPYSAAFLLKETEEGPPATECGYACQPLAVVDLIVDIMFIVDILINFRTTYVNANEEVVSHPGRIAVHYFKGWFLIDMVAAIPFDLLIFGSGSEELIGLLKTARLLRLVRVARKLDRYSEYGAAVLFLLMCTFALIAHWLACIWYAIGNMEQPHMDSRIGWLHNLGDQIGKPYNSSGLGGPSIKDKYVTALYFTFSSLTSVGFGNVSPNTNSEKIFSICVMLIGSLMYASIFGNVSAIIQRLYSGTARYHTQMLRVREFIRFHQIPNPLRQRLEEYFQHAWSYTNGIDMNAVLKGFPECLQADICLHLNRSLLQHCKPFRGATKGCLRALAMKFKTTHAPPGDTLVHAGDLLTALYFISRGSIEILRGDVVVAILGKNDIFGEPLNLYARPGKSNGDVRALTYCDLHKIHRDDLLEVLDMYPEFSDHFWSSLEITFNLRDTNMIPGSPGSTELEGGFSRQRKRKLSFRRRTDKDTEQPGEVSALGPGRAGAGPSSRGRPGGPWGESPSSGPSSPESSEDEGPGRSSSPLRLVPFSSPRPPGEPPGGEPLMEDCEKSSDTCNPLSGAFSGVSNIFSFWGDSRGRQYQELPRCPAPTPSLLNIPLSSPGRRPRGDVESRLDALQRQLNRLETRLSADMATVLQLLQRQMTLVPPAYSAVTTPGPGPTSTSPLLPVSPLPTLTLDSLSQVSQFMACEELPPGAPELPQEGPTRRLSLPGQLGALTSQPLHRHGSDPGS
Sequence of 5-HT2C receptor (P08909 33-460): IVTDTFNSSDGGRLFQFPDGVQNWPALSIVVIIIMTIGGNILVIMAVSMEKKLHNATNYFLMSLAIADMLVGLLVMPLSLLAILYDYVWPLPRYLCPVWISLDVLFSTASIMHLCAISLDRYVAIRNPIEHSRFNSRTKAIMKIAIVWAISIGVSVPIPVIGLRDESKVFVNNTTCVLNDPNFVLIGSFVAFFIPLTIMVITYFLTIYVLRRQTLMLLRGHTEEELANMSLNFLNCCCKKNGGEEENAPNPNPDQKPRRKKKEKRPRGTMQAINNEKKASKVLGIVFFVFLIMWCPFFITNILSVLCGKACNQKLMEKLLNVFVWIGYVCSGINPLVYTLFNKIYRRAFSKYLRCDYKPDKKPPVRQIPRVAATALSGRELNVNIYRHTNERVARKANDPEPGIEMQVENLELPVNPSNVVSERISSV

## CN1CCC(N2Cc3cc(F)ccc3CN(Cc3ccc(OC4CC4)cc3)C2=O)CC1 [NH-K-A19006, 8-fluoro-2-(1-methylpiperidin-4-yl)-4-[[4-(cyclopropoxy)phenyl]methyl]-1,5-dihydro-2,4-benzodiazepine-3-one]
5-HT2C receptor
  Ki: 0.00162 µM
[1]
  ED50: 0.31 mg/kg
[2]
  ED50 at 45 min: 11.9 mg/kg
[3]
  ED50: 0.012 mg/kg
[4]
  ED50: 0.265 mg/kg
[5]; 0.3 mg/kg
  reversal of DOI-induced PPI impairment: significantly reverse
[5]; 0.03 mg/kg intragastric
  PPI %, MEAN: 33.01%
  PPI %, individual animal: 49.78% and 58.97% and 53.17% and 2.79% and 32.00% and 8.44% and 20.87% and 38.06%
[5]; 0.1 mg/kg intragastric
  PPI %, MEAN: 43.48%
  PPI %, individual animal: 12.46% and 51.33% and 38.29% and 47.73% and 47.53% and 74.93% and 10.18% and 65.40%
[5]; 0.3 mg/kg intragastric
  PPI %, MEAN: 50.12%
  PPI %, individual animal: 60.53% and 60.18% and 56.91% and 67.62% and 85.73% and 7.56% and 39.78% and 22.65%
PPI in normal rats; 0.3 mg/kg
  effect on PPI in normal rats: no significant effects were seen
PPI in normal rats; 0.03 mg/kg intragastric
  PPI %, MEAN: 68.69%
  PPI %, individual animal: 81.41% and 91.96% and 55.90% and 54.35% and 60.94% and 74.39% and 87.22% and 43.35%
PPI in normal rats; 0.1 mg/kg intragastric
  PPI %, MEAN: 70.23%
  PPI %, individual animal: 60.40% (2×) and 81.41% and 77.50% and 71.96% and 69.71% and 50.53% and 89.95%
PPI in normal rats; 0.3 mg/kg intragastric
  PPI %, MEAN: 53.62%
  PPI %, individual animal: 47.76% and 42.79% and 68.71% and 70.20% and 55.52% and 65.07% and 16.28% and 62.68%
5-HT2A receptor; CHO-5-HT2A membrane, 3H-Ketanserin, read-out: 5-HT2A (Ki value)
  Ki: 0.000277 µM
5-HT2A receptor; ratio of 5-HT2C Ki to 5-HT2A Ki
  2C/2A: 5.856
hERG potassium channel
  IC50: 1.19 µM

## CC(C)COc1ccc(CNC(=O)N(Cc2ccc(F)cc2)C2CCN(C)CC2)cc1 [Pimavanserin, reference compound]
[1]
  ED50: 0.37 mg/kg
[2]
  ED50 at 45 min: 6.79 mg/kg
5-HT2B receptor
  Ki: > 0.3 µM
[3]
  ED50: 0.39 mg/kg
[4]
  ED50: 3.29 mg/kg
[5]; 3 mg/kg
  reversal of DOI-induced PPI impairment: significantly reverse
[5]; 1 mg/kg intragastric
  PPI %, MEAN: 28.93%
  PPI %, individual animal: 30.19% and 7.34% and 12.78% and −9.80% and 36.56% and 57.19% and 55.33% and 41.86%
[5]; 3 mg/kg intragastric
  PPI %, MEAN: 42.65%
  PPI %, individual animal: 25.79% and 45.06% and 35.48% and 4.10% and 30.23% and 62.54% and 62.41% and 75.59%
[5]; 10 mg/kg intragastric
  PPI %, MEAN: 47.32%
  PPI %, individual animal: 69.36% and 54.29% and 71.90% and 24.73% and 32.57% and 37.52% and 33.19% and 55.00%
Adrenergic receptor
  Ki: > 0.3 µM
[6]
  DA side effects (climbing motor deterioration) ED50: >30 mg/kg
[7]
  ED50: > 30 mg/kg
Muscarinic receptor
  Ki: > 0.3 µM
Calcium channel receptor
  Ki: > 0.3 µM
PPI in normal rats; 1 mg/kg intragastric
  PPI %, MEAN: 63.11%
  PPI %, individual animal: 14.80% and 45.96% and 67.95% and 61.11% and 92.15% and 83.93% and 70.62% and 68.32%
PPI in normal rats; 3 mg/kg intragastric
  PPI %, MEAN: 60.54%
  PPI %, individual animal: 76.95% and 37.54% and 42.51% and 64.49% and 42.29% and 71.78% and 84.89% and 63.88%
PPI in normal rats; 10 mg/kg intragastric
  PPI %, MEAN: 57.00%
  PPI %, individual animal: 83.19% and 80.13% and 44.91% and 82.49% and 52.16% and −32.12% and 72.74% and 72.49%
